Molecular target: T1, angiotensin converting enzyme (Oryctolagus cuniculus, UniProt P12822)
T1 construct: The ACE was extracted from rabbit lung acetone powder; tissue Pel-Freez Biol. Inc; host or cells: rabbit lung (acetone powder)
T1 sequence (P12822 34-1310): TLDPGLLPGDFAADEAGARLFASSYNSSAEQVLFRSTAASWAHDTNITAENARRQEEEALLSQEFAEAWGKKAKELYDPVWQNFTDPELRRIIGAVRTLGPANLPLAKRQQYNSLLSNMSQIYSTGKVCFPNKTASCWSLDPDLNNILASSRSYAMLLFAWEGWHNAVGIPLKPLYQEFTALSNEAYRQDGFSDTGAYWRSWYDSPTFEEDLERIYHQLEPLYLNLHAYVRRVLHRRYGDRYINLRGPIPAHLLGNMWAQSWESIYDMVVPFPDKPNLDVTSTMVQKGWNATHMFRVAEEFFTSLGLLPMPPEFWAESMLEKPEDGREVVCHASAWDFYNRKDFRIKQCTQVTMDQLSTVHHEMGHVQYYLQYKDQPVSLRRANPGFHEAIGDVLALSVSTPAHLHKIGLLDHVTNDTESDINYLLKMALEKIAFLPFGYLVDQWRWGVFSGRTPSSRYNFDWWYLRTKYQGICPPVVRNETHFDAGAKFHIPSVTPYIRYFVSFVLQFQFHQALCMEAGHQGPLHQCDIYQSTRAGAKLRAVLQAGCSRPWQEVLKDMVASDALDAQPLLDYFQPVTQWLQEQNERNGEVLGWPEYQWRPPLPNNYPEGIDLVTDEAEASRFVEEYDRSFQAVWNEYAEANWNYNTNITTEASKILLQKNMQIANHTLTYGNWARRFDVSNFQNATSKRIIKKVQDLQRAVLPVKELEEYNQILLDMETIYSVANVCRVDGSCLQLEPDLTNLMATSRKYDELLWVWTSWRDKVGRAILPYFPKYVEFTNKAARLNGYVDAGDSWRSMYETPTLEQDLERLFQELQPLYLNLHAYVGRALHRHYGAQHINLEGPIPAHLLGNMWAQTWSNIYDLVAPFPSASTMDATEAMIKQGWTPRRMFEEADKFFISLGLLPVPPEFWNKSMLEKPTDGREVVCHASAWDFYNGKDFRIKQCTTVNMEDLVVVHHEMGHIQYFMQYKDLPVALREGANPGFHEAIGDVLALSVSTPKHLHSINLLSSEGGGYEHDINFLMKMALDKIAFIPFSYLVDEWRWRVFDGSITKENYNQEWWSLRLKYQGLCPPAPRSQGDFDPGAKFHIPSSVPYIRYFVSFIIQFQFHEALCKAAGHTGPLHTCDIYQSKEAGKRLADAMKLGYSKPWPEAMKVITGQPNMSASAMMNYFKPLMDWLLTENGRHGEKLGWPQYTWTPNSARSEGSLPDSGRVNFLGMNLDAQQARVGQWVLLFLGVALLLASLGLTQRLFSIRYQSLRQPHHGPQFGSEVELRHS
Test: Spectrophotometric Assay for Angiotensin Converting Enzyme Inhibitors
Assay type: biochemical
Conditions: substrate benzoyl-glycyl-histidyl-leucine; crude ACE extract from rabbit lung acetone powder; 30 minutes at 37° C.
From the text: The activity of the novel compounds of this invention as hypotensive agents was established in two systems which measure their ability as angiotensin converting enzyme inhibitors; by utilizing a spectrophotometric assay of the compounds in vitro and by the measurement of the blood pressure lowering effect of the compounds in the aorta-coarcted renal hypertensive rats.
Spectrophotometric Assay for Angiotensin Converting Enzyme Inhibitors
The in vitro activity for inhibition of the angiotensin converting enzyme (ACE) was measured by the method of Cushman, D. W. and Cheung, H. S., Biochem. Pharmacol., 20, 1637-1648 (1971), using benzoyl-glycyl-histidyl-leucine as the substrate. The reaction mixture consisted of 50 μl. of potassium phosphate (500 mM., pH 10.2), […]. of sodium chloride (2500 mM.), 25 μl. of substrate (50 mM.), 30 to 50 μl. of the crude extract of ACE, 10 μl. of test compound (2.5 mM.) or vehicle and a suitable amount of distilled water to give a total volume of 250 μl. This reaction mixture was incubated for 30 minutes at 37° C. and the reaction was then terminated by the addition of 250 μl. of 1 N hydrochloric acid. The hippuric acid was then extracted with 1.5 ml. of ethyl acetate by vortex mixing for 15 seconds. After centrifugation, one ml. of th ethyl acetate layer was pipetted into a new tube and vaporated to dryness. The extracted hippuric acid was then dissolved in one ml. of water and the amount of this acid was then measured by its absorbance at 228 nm. The ACE was extracted from rabbit lung acetone powder (Pel-Freez Biol. Inc.) by blending 5 g. of the powder in 50 ml. of phosphate buffer (50 mM., pH 8.3) and then centrifuging at 40,000 g for 40 minutes. The supernatant was then kept at 5° C. and used as the enzyme source. The activity of the ACE inhibitor was calculated as the percent inhibition of ACE activity compared to the control value of that particular assay. A full dose-response inhibitory curve is then performed to determine the IC50 value which may be defined as the molar concentration of a compound that will inhibit the ACE activity by 50%.

| IC50 [µM] | SMILES |
| --- | --- |
| 0.256 | CC(=O)SC(CC(=O)N1CCC[C@H]1C(=O)O)C(=O)c1cccs1 (stereo partly drawn) [Example 1, 1-[3-(Acetylthio)-3-(2-thenoyl)propionyl]-L-proline] |
| 0.109 | CC(=O)SC(CC(=O)N1CCC[C@H]1C(=O)O)C(=O)c1ccc(Br)s1 (stereo partly drawn) [Example 2, 1-[3-(Acetylthio)-3-(5-bromo-2-thenoyl)propionyl]-L-proline] |
| 0.108 | CC(=O)SC(CC(=O)N1CCC[C@H]1C(=O)O)C(=O)c1ccc(Cl)s1 (stereo partly drawn) [Example 3, 1-[3-(Acetylthio)-3-(5-chloro-2-thenoyl)propionyl]-L-proline] |
| 0.139 | CC(=O)SC(CC(=O)N1CCC[C@H]1C(=O)O)C(=O)c1csc2ccccc12 (stereo partly drawn) [Example 4, 1-[3-(Acetylthio)-3-(benzo[b]thien-3-ylcarbonyl)propionyl]-L-proline] |
| 21 | CC(=O)SC(C(=O)c1cc2ccccc2s1)C(C)C(=O)N1CCC[C@H]1C(=O)O (stereo partly drawn) [Example 35, 1-[3-Acetylthio-3-(benzo[b]thien-2-ylcarbonyl)-2-methylpropionyl]-L-proline] |
| 0.675 | CC(=O)SC(CC(=O)N1CCC[C@H]1C(=O)O)C(=O)c1ccco1 (stereo partly drawn) [Example 36, 1-[3-Acetylthio-3-(2-furoyl)propionyl]-L-proline] |
| 0.074 | CC(=O)SC(CC(=O)N1CCC[C@H]1C(=O)O)C(=O)c1cc2ccccc2o1 (stereo partly drawn) [Example 37, 1-[3-Acetylthio-3-(2-benzofuranylcarbonyl)propionyl]-L-proline] |

— US4342690A, “ω-Heteroaroyl(propionyl or butyryl)-L-prolines” (American Cyanamid Company, priority 1981, dated 1982)
